Patent US8809052B2, “Methods of generating mature oligodendrocytes” (Yeda Research and Development Co. Ltd., priority 2006, dated 2014)
Entries after “also recorded” stand apart in the source; their conditions may differ.

Key:
shiverer brain slices = assay: Ex vivo transplantation of human ES-NSc on shiverer brain slices (organotypic cultures), MBP staining and electron microscopy; assay type: cell-based, mouse
Experimental: Immunostaining—Cells were fixed in 12 or 24-well tissue culture plastic plates with 4% paraformaldehyde (PFA), washed with PBS, and kept at 4° C. before staining. Non-specific staining was blocked with normal goat serum (5% w/v in PBS) for 30 min at RT. Thereafter primary mouse monoclonal (mMc) antibodies, diluted in 1% goat serum, were administered. Antibodies used were: anti PDGFR (mMc IgG1, Santa Cruz, 1:500), O4 (mMc IgM, R&D Systems, 1:1000), O1 (mMc IgM, received from Dr Sheila Harroch, Pasteur Institute, Paris), anti tubulin-βIII (mMc IgG1, Cowance, 1:1000), and antibody 1281 (human nuclei antigen HNA, Chemicon). Following overnight exposure to the appropriate antibody (4° C.), biotinylated goat anti-mouse IgG1 (Southern Biotech, 1:50) was added for 30 minutes, followed by Cy3-tagged streptavidine (ABC laboratories, 1:2000). […] Staining for MBP was with rat monoclonal anti MBP (ab7349, AbCam, 1/500), and Cy3-conjugated Affipure goat anti rat IgG (Jackson laboratories, 1:500). […] An Olympus IX-70 FLA microscope with a DVC-1310C digital camera (DVC, Austin, Tex.) was used and images were processed with Photoshop and analyzed with Image-ProPlus software (Media Cybernetics, Silver Spring, Md.), in order to measure Integrated Optic Density (IOD) of color-specific pixels and MBP fiber length. […]

Shiverer mice = assay: Transplantation of huES-NSc into brain of shiverer mice, MBP-stained fibers; assay type: in vivo, mouse; conditions: FIG. 4e
Source text: Animal model—Shiverer mice have an extensive deletion in the MBP gene (Roach et al., 1985) and in a homozygous shi−/− animal there is no MBP immunoreactivity in the CNS. The appearance of fibers showing immunostaining for MBP following transplantation of oligodendrocyte precursors therefore indicates, that the transplanted cells have the capacity to myelinate endogenous neurons (Lachapelle et al., 1983).
Transplantation of huES-NSc in Shiverer mice—For transplantation, ES cell-derived dissociated neuroglial sphere cells (huEs-NSc) were prepared as described in Example 3. The culture steps from step T to step D3 that were followed, are outlined in Table 1 condition 3. in Example 1. However, Step D3 was for 9 days, with and without 50 ng/ml noggin. Growth factors were then removed for one day, during which 1 μg/ml laminin, and 50 μg/m Vit C were added to the N2/B27 medium (step F2, as described in Example 1). The culture was thereafter subjected to the short trypsin treatment (see Example 1) and the cells were injected intraventricularly to homozygous shiverer mice. One day old shi/shi pups were anesthetized by brief hypothermia and received an injection of 10^5 cells in 2 μl, over a period of 3 minutes, into the brain third ventricule, using a Hamilton 10 μl syringe. The pups were then warmed and returned to their mothers. […]

human ES cells = assay: RT-PCR gene expression at the different culture steps; assay type: cell-based
Experimental: RT-PCR—total RNA was isolated from cultures at different culture steps using Tri-Reagent (Molecular Research Center, Cincinnati, Ohio) and RT-PCR was carried out by standard technology as previously described (Slutsky et al., 2003). Expression was checked for the following genes, as described in table 2 below, including the expression of the control gene G3PDH. Also provided in the table are primer sequences used for each gene. For G3PDH, primers from Clontech (Palo Alto, Calif., catalog #9805-1) were used.

[1] = tested on: human ES cell-derived neuroglial sphere cells; assay: Count of O4+ cells with oligodendrocyte branching morphology per field after terminal differentiation; assay type: cell-based
Experimental: Differentiation of ES cells into oligodendrocytes—The following steps were taken for initiating ES cell differentiation:
1. Step T: Transition step—Collagenase detached huESC colonies pooled from six 6-well plates, into a 15 ml tube supplemented with ES1 medium, were let to sediment by gravity for about 30 minutes in the incubator (37° C.). Colonies were then washed once in ES1 medium and then transferred to 12×6 cm tissue culture plates in 5 ml transition medium (T-medium) consisting of 50% (v/v) ES1 medium, and 50% (v/v) of ITTSPP/B27 medium. Growth factors (GF), recombinant human EGF (20 ng/ml, R&D Systems, Minneapolis, Minn.) and recombinant human bFGF (4 ng/ml, Biotest, Dreieich, Germany) were added to the transition medium. Thereafter (1 d), some cells adhered but the bulk of huESC colonies and aggregates remained in suspension and were transferred to 12 bacterial (non-adherent) plates in the same transition medium and cultured for 1 day. Then, 10 μM retinoic acid (RA, Sigma-Aldrich, St. Lewis, Mo.) was added to the T-medium and cells were cultured for an additional day.
2. Step R: Retinoic acid treatment—The medium was switched to ITTSPP/B27 containing 20 ng/ml of EGF and 10 μM RA. Medium was changed every day for 7 days, and colonies were concentrated by gravity, without centrifugation.
3. Step S: Suspension culture—During this step, which allows for ripening of neurospheres (NS), the aggregates were cultured in ITTSPP/B27 medium supplemented with 20 ng/ml EGF, for 18 days, changing medium every two days. The ITTSPP/B27 medium was, or was not supplemented with 50 ng/ml Noggin-Fc chimera (R&D systems, Minneapolis, Minn.), in order to examine the effect of noggin.
4. Steps M1,2: Adherence to matrigel-coated plates—Spheres or aggregates from one original 6-well plate were distributed to another 6-well plate which had been coated for 1.5 hours at room temperature with matrigel (Matrigel low growth factor concentration; BD Biosciences, Clontech, Palo Alto, Calif., diluted 1:30 in DMEM/F12 Pen-Strep). After one day, the unbound aggregates were discarded and fresh ITTSPP/B27 medium, supplemented with 20 ng/ml EGF, was added. Medium was changed every 3-4 days.
5. Passage with trypsin—Following 1-2 weeks, aggregates were detached and partially dissociated by a short treatment with trypsin 0.05% (2-3 min, 37° C.; Biological industries, Beit Haemek, Israel, diluted in PBS, —Ca and —Mg). Trypsin was rapidly neutralized by addition of 4 volumes of BSA (2 mg/ml; Sigma for Tissue culture) in ITTSPP/B27, and centrifugation at (200 rpm, 10 min), followed by another wash with BSA. This treatment dissociates the aggregates to small clusters that are seeded again onto matrigel-coated plates (at dilution 1:3), in ITTSPP/B27, 20 ng/ml EGF, for another 1-2 weeks (step M2).
(§1) 6. Steps F1,2: Terminal differentiation on matrigel—In step F1 (3 days), the medium was changed to ITTSPP/B27 containing EGF 5 ng/ml and bFGF 5 ng/ml, together with mouse laminin 1 μg/ml, and Vit C (50 μg/ml; Sigma-Aldrich, St. Lewis, Mo.). Some of the wells were treated with noggin (50 ng/ml Noggin-Fc chimera; R&D systems, Minneapolis, Minn.), 2 days after seeding, and noggin was continued thereafter. In step F2, cells were cultured 6 or 10 days in the same medium without growth factor, but with or without noggin. The medium was changed every two to four days.
Immunostaining—Cells were fixed in 12 or 24-well tissue culture plastic plates with 4% paraformaldehyde (PFA), washed with PBS, and kept at 4° C. before staining. Non-specific staining was blocked with normal goat serum (5% w/v in PBS) for 30 min at RT. Thereafter primary mouse monoclonal (mMc) antibodies, diluted in 1% goat serum, were administered. Antibodies used were: anti PDGFR (mMc IgG1, Santa Cruz, 1:500), O4 (mMc IgM, R&D Systems, 1:1000), O1 (mMc IgM, received from Dr Sheila Harroch, Pasteur Institute, Paris), anti tubulin-βIII (mMc IgG1, Cowance, 1:1000), and antibody 1281 (human nuclei antigen HNA, Chemicon). […]

[2] = tested on: human ES cell-derived oligodendrocytes; assay: Number of MBP+ oligodendrocytes by immunostaining; assay type: cell-based; conditions: step F2, 10 days without GF, noggin vs without noggin; FIG. 2g
Experimental: as §1
Immunostaining—Cells were fixed in 12 or 24-well tissue culture plastic plates with 4% paraformaldehyde (PFA), washed with PBS, and kept at 4° C. before staining. Non-specific staining was blocked with normal goat serum (5% w/v in PBS) for 30 min at RT. Thereafter primary mouse monoclonal (mMc) antibodies, diluted in 1% goat serum, were administered. […] An Olympus IX-70 FLA microscope with a DVC-1310C digital camera (DVC, Austin, Tex.) was used and images were processed with Photoshop and analyzed with Image-ProPlus software (Media Cybernetics, Silver Spring, Md.), in order to measure Integrated Optic Density (IOD) of color-specific pixels and MBP fiber length. […]

[3] = Dissociated cells, Passage 2, listed as noggin
[4] = On Matrigel, noggin added at Step S
[5] = On Matrigel, noggin added at Steps F and S

Noggin
myelin by electron microscopy (shiverer brain slices; brain tissue transplanted with noggin-treated huES-NS cells, FIG. 5e,f): compacted myelin sheaths, with major dense lines, were formed
overall myelinating capacity (extent of MBP staining and mean length of MBP+ fibers) (shiverer brain slices; noggin-treated vs untreated huES-NS cells, two weeks after implantation, FIG. 5g): markedly enhanced
number of MBP fibers/field (Shiverer mice; cells cultured with vs without noggin): increased
increase in the number of MBP fibers (Shiverer mice; huES-NSc treated 9 days with 50 ng/ml noggin at step D3, injected into third ventricule, four weeks): 3.5-4 fold
expression of Oct4 and Rex1 (human ES cells; after step S with noggin): down-regulated
expression of myelin proteolipid protein (PLP) (human ES cells; after step S with noggin): increasing
expression of PDGF-Rα (human ES cells; after step S with noggin, FIG. 1a lane 3): decreased
expression of Nkx2.2 and Sox10 (human ES cells; after step S, noggin 50 ng/ml, FIG. 1a lane 3): seen only when noggin was added
oligodendrocytes formed in the differentiation step ([1]; Dissociated cells, passage 2, noggin added at the early step S): 1.77±1.2
Fold (with vs without noggin), number of oligodendrocytes per field ([1]; Dissociated cells, Passage 2): 9.1
Number of oligodendrocytes per field ([1]; Dissociated cells, Passage 2): 5.20 ± 1.7
O4+ cells with ramified oligodendrocyte shape as share of total cells ([1]; Dissociated cells, Passage 2): about 5%
total O4+ cells as share of total cells ([1]; Dissociated cells, Passage 2): about 15%
Fold (with vs without noggin), number of oligodendrocytes per field [1, 3]: 9
Number of oligodendrocytes per field [1, 3]: 5.20±1.7
Fold (with vs without noggin), number of oligodendrocytes per field ([1]; Dissociated cells, Passage 3): 7.1
Number of oligodendrocytes per field ([1]; Dissociated cells, Passage 3): 10.14 ± 5.2
Fold (with vs without noggin), number of oligodendrocytes per field ([1]; Dissociated cells, Passage 4): 6.0
Number of oligodendrocytes per field ([1]; Dissociated cells, Passage 4): 12.05 ± 3.6
Number of oligodendrocytes per field ([1]; On Matrigel, noggin 50 ng/ml added at Step F, 6 days without growth factors, fields of 0.4 mm^2): 5.76 ± 4.2
Fold (with vs without noggin), number of oligodendrocytes per field ([1]; On Matrigel, noggin added at Step F): 8.7
Fold (with vs without noggin), number of oligodendrocytes per field [1, 4]: 2.2
Number of oligodendrocytes per field [1, 4]: 1.50 ± 1.4
Fold (with vs without noggin), number of oligodendrocytes per field [1, 5]: 4.4
Number of oligodendrocytes per field [1, 5]: 2.95 ± 1.7
proportion of oligodendrocytes of the total cells in the culture ([1]; after sub-passages (passages 3 and 4), noggin during steps D and F): 43%
number of well-developed oligodendrocytes displaying ramified branches ([1]; on matrigel, 10 days without growth factors, FIGS. 1g-h): strong effect
number of MBP+ oligodendrocytes [2]: very significant stimulation; also recorded: strong stimulation

bFGF: recombinant human basic fibroblast growth factor
induction of Nkx2.2 (human ES cells; protocol based on bFGF treatment with neither RA nor noggin, FIG. 1b): failed to induce Nkx2.2
effect of addition at step S (ripening of neurospheres) ([1]; bFGF 20 ng/ml at step S): not found to be helpful
oligodendrocytes formed in the final differentiation step F ([1]; bFGF alternating with EGF during step S (without noggin), step F with noggin): 0.66±0.5
expansion of dissociated precursor cells ([1]; combination of bFGF and EGF at step D2): better than EGF alone
